Literature values as cited in US20050048543A1 (priority 2003, published 2005).

How the values were obtained:
[1] = test system: patients with mild to moderate AD; conditions: galantamine therapy in patients

With COc1ccc2c3c1O[C@H]1C[C@@H](O)C=C[C@@]31CCN(C)C2 [galantamine] as the compound, how does the “most common side effects” value [1] read?
The value was “nausea, vomiting, diarrhea, dizziness and anorexia”.

Which “response to treatment in presence of the ApoE4 polymorphism” value (AD patients) does the source give for Nc1c2c(nc3ccccc13)CCCC2 [tacrine] here?
The value was “reduced response to treatment”.
